The target in one data set is T1, human recombinant A2AAR (Homo sapiens, UniProt P29274).
T1 construct: expressed in transfected cells; membrane preparation
Description: Radioligand binding at human A2AAR ([3H]NECA displacement, CHO cell membranes). Particulars: displacement of [3H]NECA, CHO membranes, n = 3–5, means ± standard errors. The protocol:
Most of the compounds were also evaluated at A2BARs in a functional study using the GloSensor cAMP assay. […] In the case of A2BARs, Ki-values were calculated from IC50-values determined by the inhibition of NECA-stimulated adenylyl cyclase activity.
Preparation of membranes: Cell membranes for binding assays were prepared mechanically detaching the cells from the petri and suspending them in a cold hypotonic buffer (5 mM Tris/HCl, 2 mM EDTA, pH 7.4). The cell suspension was homogenized (Ultra-Turrax, 2 × 15 s at maximum speed) and the homogenate centrifuged for 10 min (4 °C) to 1000× g. […] The amount of the protein suspension was determined according to the […] using the BCA Protein Assay Kit (Pierce), frozen in liquid nitrogen, and stored at −80 °C.
(§1) Binding assays: The dissociation constants of the radioligand (KD) were calculated through saturation assays, while the dissociation constants of the compounds under study (Ki) were determined by competition experiments. All binding data were calculated by nonlinear regression curves using the software GraphPad Prism 5 (GraphPad Software, San Diego, CA, USA). The increasing concentrations of the radioligand saturation binding ([^3H]-CCPA for the A1 receptor subtype, [^3H]-NECA for the A2A receptor subtype, and [^3H]-HEMADO for the A3 receptor) subtype were incubated in a total volume of 250 μL containing 0.2 U/mL of Ado deaminase (ADA) and 12 micrograms of membrane proteins in the specific buffer. In competition experiments for the A1 receptor subtype, each compound was added at increasing concentrations, to the well containing 1 nM of [^3H]-CCPA, to a final volume of 200 μL. The samples were left to incubate for 3 h at room temperature, filtered in a filter 96-well plate (UniFilter GF/C, Perkin-Elmer Life and Analytical Science, Boston, MA) using the FilterMate Cell Harvester (Perkin-Elmer), and washed 3 times with cold distilled water. After drying the filter plate at 40 °C for 30′, they 20 μL of scintillating liquid (Microscint-20, Perkin-Elmer) was added to each well, and then the radioactivity was quantized with the MicroBeta2 Plate Counter (Perkin-Elmer). The conditions for binding experiments at A2A and A3 receptor subtypes were essentially the same as for the A1AR using [^3H]-NECA (N-ethylcarboxyamideAdo) at a concentration of 10 nM and [^3H]-HEMADO (2-(1-hexyne)-N^6-methylAdo) at a concentration of 1 nM as radioligands, respectively. The samples were incubated with 12 micrograms of protein for 3 h at room temperature and filtered as described above.
(§2) The non-specific binding was determined in the presence of 1 mM theophylline for the A1AR, or 100 µM R-PIA (N^6-(1-methyl-2-phenylethyl)Ado) for the A2A and A3 receptors.
A general note: Displacement assays read how much labelled ligand stays bound in the presence of the test substance.

For a further data set, the target named is T2, A2BAR (Homo sapiens, UniProt P29275).
T2 construct: expressed in transfected cells
T2 sequence (P29275 1-332): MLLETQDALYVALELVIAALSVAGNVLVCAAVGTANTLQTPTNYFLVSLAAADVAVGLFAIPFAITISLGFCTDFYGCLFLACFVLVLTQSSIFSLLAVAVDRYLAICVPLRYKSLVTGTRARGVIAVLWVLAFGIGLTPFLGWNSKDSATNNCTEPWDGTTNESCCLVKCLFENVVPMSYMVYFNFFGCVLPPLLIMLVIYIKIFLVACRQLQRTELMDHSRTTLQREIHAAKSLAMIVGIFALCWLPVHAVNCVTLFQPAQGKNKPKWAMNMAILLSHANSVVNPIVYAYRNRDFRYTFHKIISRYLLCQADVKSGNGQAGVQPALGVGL
As to the kind of experiment: Functional study at A2BAR (GloSensor cAMP assay; inhibition of NECA-stimulated adenylyl cyclase activity). The format is cell-based. The note with it: Ki calculated from IC50 of inhibition of NECA-stimulated adenylyl cyclase activity, CHO cells. As to the method:
(§3) The affinities of the newly synthesized compounds 7–13 and 17–21 were determined in binding studies at human recombinant A1, A2A, and A3 ARs, stably transfected in Chinese hamster ovary (CHO) cells, using [^3H]CCPA (2-chloro-N^6-cyclopentylAdo), [^3H]NECA (5′-N-ethylcarboxamidoAdo), and [^3H]HEMADO (2-hexynyl-N^6-methylAdo) as respective radioligands. Most of the compounds were also evaluated at A2BARs in a functional study using the GloSensor cAMP assay. The results are reported in Table 1 as Ki values in nM (± standard errors). In the case of A2BARs, Ki-values were calculated from IC50-values determined by the inhibition of NECA-stimulated adenylyl cyclase activity.

The next data set has as its target T3, human recombinant A3AR (Homo sapiens, UniProt P0DMS8).
T3 construct: expressed in transfected cells; membrane preparation
T3 sequence (P0DMS8 1-318): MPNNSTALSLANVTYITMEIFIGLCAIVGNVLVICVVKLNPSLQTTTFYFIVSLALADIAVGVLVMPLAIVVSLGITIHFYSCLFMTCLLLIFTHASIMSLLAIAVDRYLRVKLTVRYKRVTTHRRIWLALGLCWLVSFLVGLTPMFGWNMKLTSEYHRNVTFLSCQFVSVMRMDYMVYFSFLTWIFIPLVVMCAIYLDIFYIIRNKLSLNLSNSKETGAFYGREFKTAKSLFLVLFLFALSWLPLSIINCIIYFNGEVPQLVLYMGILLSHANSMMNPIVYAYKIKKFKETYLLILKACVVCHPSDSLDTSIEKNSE
As to the kind of experiment: Radioligand binding at human A3AR ([3H]HEMADO displacement, CHO cell membranes). Particulars: displacement of [3H]HEMADO, n = 3–5, means ± standard errors. The protocol: as §3
(§4) Cell culture: The Chinese hamster ovary cells (CHO) stably transfected with the desired ARs were grown in DMEM/F12 medium containing 10% FBS (fetal bovine serum), 100 U/mL penicillin, 100 µg/mL streptomycin, 2.5 μg/mL amphotericin B, 1 mM sodium pyruvate, 0.1 mg/mL genetecina (G418), and incubated at 37 °C in a gaseous mixture of 5% CO2: […].
(§5) Preparation of membranes: Cell membranes for binding assays were prepared mechanically detaching the cells from the petri and suspending them in a cold hypotonic buffer (5 mM Tris/HCl, 2 mM EDTA, pH 7.4). The cell suspension was homogenized (Ultra-Turrax, 2 × 15 s at maximum speed) and the homogenate centrifuged for 10 min (4 °C) to 1000× g. The supernatant was subsequently centrifuged for 30 min (4 °C) at 100,000× g and the pellet containing the membrane proteins was re-suspended in a specific buffer for each receptor subtype (A1: 50 mM Tris/HCl, pH 7.4; A2A: 50 mM Tris/HCl, 10 mM MgCl2, pH 7.4; A3: 50 mM Tris/HCl, 10 mM MgCl2, 1 mM EDTA, pH 8.25). The amount of the protein suspension was determined according to the […] using the BCA Protein Assay Kit (Pierce), frozen in liquid nitrogen, and stored at −80 °C.
as §1, §2

In the next data set the target is T4, human recombinant A1AR (Homo sapiens, UniProt P30542).
T4 construct: expressed in transfected cells; membrane preparation
T4 sequence (P30542 1-326): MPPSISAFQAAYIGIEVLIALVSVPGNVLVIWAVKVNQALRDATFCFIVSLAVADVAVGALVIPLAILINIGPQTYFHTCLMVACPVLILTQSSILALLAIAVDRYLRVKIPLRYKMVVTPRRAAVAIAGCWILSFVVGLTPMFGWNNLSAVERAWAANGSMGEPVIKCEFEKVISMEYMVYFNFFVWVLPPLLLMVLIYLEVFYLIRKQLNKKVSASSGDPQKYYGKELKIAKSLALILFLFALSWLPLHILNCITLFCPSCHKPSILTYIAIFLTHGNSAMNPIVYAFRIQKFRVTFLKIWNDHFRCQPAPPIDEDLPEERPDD
Description: Radioligand binding at human A1AR ([3H]CCPA displacement, CHO cell membranes). Particulars: displacement of [3H]CCPA, n = 3–5, means ± standard errors. The protocol:
as §3, §4, §5, §1, §2

A further data set relates to PD patients. More on the design: method as in PMID 26523919. Particulars: two phase III trials, adjunct to levodopa in PD patients; cited from earlier work.

A value given as a limit tells only on which side of the number the result lay.

T1 sequence (P29274 whole entry): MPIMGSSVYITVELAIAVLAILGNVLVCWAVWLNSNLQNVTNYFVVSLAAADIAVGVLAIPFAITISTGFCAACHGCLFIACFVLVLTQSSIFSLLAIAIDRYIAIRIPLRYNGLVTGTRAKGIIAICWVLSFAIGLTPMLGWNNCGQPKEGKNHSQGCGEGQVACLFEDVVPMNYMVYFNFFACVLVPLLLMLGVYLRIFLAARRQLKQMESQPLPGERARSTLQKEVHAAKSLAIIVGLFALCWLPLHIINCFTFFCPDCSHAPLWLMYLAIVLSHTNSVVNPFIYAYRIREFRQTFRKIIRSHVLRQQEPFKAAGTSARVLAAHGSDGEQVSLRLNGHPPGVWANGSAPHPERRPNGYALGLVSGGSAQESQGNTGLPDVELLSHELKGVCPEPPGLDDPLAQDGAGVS

For orientation: Ki means the dissociation constant of the complex between target and ligand, obtained from inhibition or displacement. In the case of `CCn1c(O)nc2c(N)nc(NCCc3ccc(OC)cc3)nc21` [compound 10], the inhibitory constant (Ki) was > 30 µM on human recombinant A2AAR, > 30 µM on A2BAR, 0.777 µM at human recombinant A3AR and 1.39 µM on human recombinant A1AR.
As a reminder, the melting point is the temperature of the solid-liquid transition. For `CCOc1nc2nc(SC)nc(N)n2n1` [compound 18, 2-Ethoxy-5-(methylthio)-[1,2,4]triazolo[1,5-a][1,3,5]triazin-7-amine], the melting point is 220 °C (dec.). Besides, the inhibition constant Ki at human recombinant A2AAR was determined as 0.583 µM. Also, the Ki on human recombinant A3AR was 9.72 µM. In addition, the Ki at human recombinant A1AR is 4.57 µM.
`CCn1c(Br)nc2c(N)nc(NCCc3ccc(O)cc3)nc21` [compound 9, 4-(2-((6-Amino-9-ethyl-8-bromo-9H-purin-2-yl)amino)ethyl)phenol]: the Ki on human recombinant A2AAR was 0.044 µM; at A2BAR, 0.393 µM; at human recombinant A3AR, 3.81 µM; at human recombinant A1AR it was 0.411 µM.
With `COCCOc1ccc(N2CCN(CCn3ncc4c3nc(N)n3nc(-c5ccco5)nc43)CC2)cc1` [Preladenant], in the data set on PD patients, the efficacy versus placebo entry is listed as “efficacy was not significantly higher than the placebo”.
For the compound `CCOc1nc(N)n2nc(OCC)nc2n1` [compound 19, 2,5-diethoxy-[1,2,4]triazolo[1,5-a][1,3,5]triazin-7-amine], the inhibition constant (Ki) turned out to be 1.06 µM at human recombinant A2AAR, 4.79 µM on human recombinant A3AR and 6.36 µM on human recombinant A1AR.
In the case of `CCn1cnc2c(N)nc(NCCc3ccc(OC)cc3)nc21` [compound 7, 9-Ethyl-N^2-(4-methoxyphenethyl)-9H-purine-2,6-diamine], the Ki on human recombinant A2AAR is 1.46 µM; at A2BAR, > 30 µM; on human recombinant A3AR it was 23.6 µM; at human recombinant A1AR, 5.84 µM.
On the same counts, the results for `CCn1c(-c2ccco2)nc2c(N)nc(NCCc3ccc(OC)cc3)nc21` [compound 12, 9-ethyl-8-(furan-2-yl)-N^2-(4-methoxyphenethyl)-9H-purine-2,6-diamine] are 0.001 µM, > 30 µM, 0.016 µM and 0.0026 µM.
Take `CCn1c(Br)nc2c(N)nc(NCCc3ccc(OC)cc3)nc21` [compound 8, 8-Bromo-9-ethyl-N^2-(4-methoxyphenethyl)-9H-purine-2,6-diamine]: the Ki at human recombinant A2AAR was 0.034 µM; at A2BAR, 4.26 µM; at human recombinant A3AR, 4.03 µM; at human recombinant A1AR, 0.545 µM.
In the case of `CSc1nc(N)n2nc(S(C)(=O)=O)nc2n1` [compound 17, 2-(Methylsulfonyl)-5-(methylthio)-[1,2,4]triazolo [1,5-a][1,3,5]triazin-7-amine], the figures for the Ki on human recombinant A2AAR, at human recombinant A3AR and at human recombinant A1AR were 3.24 µM, 14.7 µM and 5.72 µM, respectively.
Turning to `CCn1c(O)nc2c(N)nc(NCCc3ccc(O)cc3)nc21` [compound 11], the Ki was > 30 µM on human recombinant A2AAR, > 30 µM at A2BAR, > 30 µM on human recombinant A3AR and 7.05 µM at human recombinant A1AR.

The values are drawn from PMC9032385, “A2A Adenosine Receptor Antagonists: Are Triazolotriazine and Purine Scaffolds Interchangeable?” (Molecules, 2022).
